Measurements: PubChem BioAssay (NCI)
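Protocol summary: plate cells (96-well), add compound at 5 concentrations, incubate 48 h, interpolate endpoints linearly. GI50 is the concentration that inhibits growth by half. TGI denotes the concentration required for complete inhibition of growth.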

How the values were obtained:
Test in all cases: NCI anticancer screen, dose series, 48 h
HT29 colon = test system: HT29 colon
BT-549 breast = test system: BT-549 breast
M14 melanoma = test system: M14 melanoma
HCT-116 colon = test system: HCT-116 colon
MOLT-4 leukemia = test system: MOLT-4 leukemia
IGROV1 ovarian = test system: IGROV1 ovarian
COLO 205 colon = test system: COLO 205 colon
SW-620 colon = test system: SW-620 colon
SR leukemia = test system: SR leukemia
A498 renal = test system: A498 renal

COc1ccc(N2C(=O)CC(C3CC(C(C)(C)C)CCC3=O)C2=O)cc1 (centres undefined)
TGI (HT29 colon): > 100 µM | TGI (BT-549 breast): > 100 µM | TGI (M14 melanoma): > 100 µM | TGI (HCT-116 colon): > 100 µM | TGI (MOLT-4 leukemia): > 100 µM | TGI (IGROV1 ovarian): > 100 µM | TGI (COLO 205 colon): > 100 µM | TGI (SW-620 colon): > 100 µM | TGI (SR leukemia): > 100 µM

Nc1c2c(nc3cc(F)c(F)cc13)CCC2
TGI (HT29 colon): > 100 µM | TGI (BT-549 breast): > 100 µM | TGI (M14 melanoma): > 100 µM | TGI (HCT-116 colon): > 100 µM | TGI (MOLT-4 leukemia): > 100 µM | TGI (IGROV1 ovarian): > 100 µM | TGI (COLO 205 colon): > 100 µM | TGI (SW-620 colon): > 100 µM | TGI (SR leukemia): > 100 µM | TGI (A498 renal): 61.2 µM

COc1ccc(C2COc3cc(OC(C)=O)c(OC(C)=O)cc3C2)cc1 (centres undefined)
TGI (HT29 colon): 56.1 µM | TGI (HCT-116 colon): 47.3 µM | TGI (MOLT-4 leukemia): 29.1 µM | TGI (IGROV1 ovarian): 55.9 µM | TGI (COLO 205 colon): 44.4 µM | TGI (SW-620 colon): 46.5 µM | TGI (A498 renal): 8.32 µM

CN(C)CCCNC(=O)c1cc2[nH]c3c(cnc4ccc([N+](=O)[O-])cc43)c(=O)c2n1C
GI50 (HT29 colon): 5.93 µM | TGI (HT29 colon): 18.6 µM | GI50 (BT-549 breast): 20.2 µM | TGI (BT-549 breast): 43.2 µM | GI50 (M14 melanoma): 17.3 µM | TGI (M14 melanoma): 31.1 µM | GI50 (HCT-116 colon): 6.8 µM | TGI (HCT-116 colon): 20.1 µM | GI50 (MOLT-4 leukemia): 13.5 µM | TGI (MOLT-4 leukemia): 33.9 µM | GI50 (IGROV1 ovarian): 12.5 µM | TGI (IGROV1 ovarian): 27.7 µM | GI50 (COLO 205 colon): 16.5 µM | TGI (COLO 205 colon): 30.1 µM | GI50 (SW-620 colon): 17.4 µM | TGI (SW-620 colon): 34.5 µM | GI50 (SR leukemia): 14.5 µM | TGI (SR leukemia): 43.3 µM | GI50 (A498 renal): 55.1 µM | TGI (A498 renal): > 100 µM

O=Cc1cn(CCCCCCCCCCCCn2cc(C=O)c3ccccc32)c2ccccc12
TGI (HT29 colon): > 100 µM | TGI (BT-549 breast): > 100 µM | TGI (M14 melanoma): > 100 µM | TGI (HCT-116 colon): > 100 µM | TGI (MOLT-4 leukemia): > 100 µM | TGI (IGROV1 ovarian): > 100 µM | TGI (COLO 205 colon): > 100 µM | TGI (SW-620 colon): > 100 µM | TGI (SR leukemia): > 100 µM | TGI (A498 renal): > 100 µM

N#Cc1c(-c2ccc(Cl)cc2)c2c([nH]c1=O)-c1ccccc1SC2
TGI (HT29 colon): > 100 µM | TGI (BT-549 breast): > 100 µM | TGI (M14 melanoma): > 100 µM | TGI (HCT-116 colon): > 100 µM | TGI (MOLT-4 leukemia): 94.8 µM | TGI (IGROV1 ovarian): > 100 µM | TGI (COLO 205 colon): 50.3 µM | TGI (SW-620 colon): > 100 µM | TGI (SR leukemia): > 100 µM | TGI (A498 renal): > 100 µM

CCCCCCCCCC1(N=[N+]=[N-])C(=O)c2ccccc2N(C)C1=O (centres undefined)
TGI (HT29 colon): > 100 µM | TGI (BT-549 breast): 74.6 µM | TGI (M14 melanoma): 64.6 µM | TGI (HCT-116 colon): 75.2 µM | TGI (IGROV1 ovarian): 60.7 µM | TGI (COLO 205 colon): > 100 µM | TGI (SW-620 colon): > 100 µM | TGI (SR leukemia): > 100 µM | TGI (A498 renal): 76.8 µM

CC(C)(C)[Si](C)(C)OCC1OC(n2ccc(N)nc2=O)C(O[Si](C)(C)C(C)(C)C)C1O[Si](C)(C)C(C)(C)C (centres undefined)
TGI (HT29 colon): 3.02 µM | TGI (BT-549 breast): 3.73 µM | TGI (M14 melanoma): 3.24 µM | TGI (HCT-116 colon): 11.6 µM | TGI (IGROV1 ovarian): 3.94 µM | TGI (COLO 205 colon): 9.84 µM | TGI (SW-620 colon): 2.93 µM | TGI (SR leukemia): 6.66 µM

CCCC(=O)n1[nH]c(=O)n(-c2ccc(Cl)cc2)c1=O
TGI (HT29 colon): > 100 µM | TGI (BT-549 breast): > 100 µM | TGI (M14 melanoma): > 100 µM | TGI (HCT-116 colon): > 100 µM | TGI (MOLT-4 leukemia): > 100 µM | TGI (IGROV1 ovarian): > 100 µM | TGI (COLO 205 colon): > 100 µM | TGI (SW-620 colon): > 100 µM | TGI (SR leukemia): > 100 µM

Oc1c(C2=NNC(c3ccc(Cl)cc3Cl)C2)ccc2ccccc12 (centres undefined)
TGI (HT29 colon): > 100 µM | TGI (BT-549 breast): > 100 µM | TGI (M14 melanoma): > 100 µM | TGI (HCT-116 colon): > 100 µM | TGI (MOLT-4 leukemia): 31.4 µM | TGI (IGROV1 ovarian): > 100 µM | TGI (COLO 205 colon): > 100 µM | TGI (SW-620 colon): > 100 µM | TGI (SR leukemia): 35 µM | TGI (A498 renal): > 100 µM

CCCCN(CCCC)CC(O)c1cc(-c2ccc(C(F)(F)F)cc2)nc(-c2ccc(C(F)(F)F)cc2)c1 (centres undefined)
TGI (HT29 colon): > 100 µM | TGI (M14 melanoma): > 100 µM | TGI (HCT-116 colon): > 100 µM | TGI (MOLT-4 leukemia): > 100 µM | TGI (IGROV1 ovarian): > 100 µM | TGI (COLO 205 colon): > 100 µM | TGI (SW-620 colon): > 100 µM | TGI (SR leukemia): > 100 µM | TGI (A498 renal): > 100 µM

CC(C)(C)NC(NC(C)(C)C)=C(/C=C(/Cl)[N+](=O)[O-])[N+](=O)[O-]
TGI (HT29 colon): > 100 µM | TGI (M14 melanoma): 92.5 µM | TGI (HCT-116 colon): > 100 µM | TGI (MOLT-4 leukemia): > 100 µM | TGI (IGROV1 ovarian): > 100 µM | TGI (COLO 205 colon): 60.3 µM | TGI (SR leukemia): > 100 µM | TGI (A498 renal): > 100 µM

Nc1ccc(Oc2ccc(C34CC5CC6C3CC3CC4C(C5)C6(c4ccc(Oc5ccc(N)cc5)cc4)C3)cc2)cc1
TGI (HT29 colon): > 100 µM | TGI (BT-549 breast): > 82.8 µM | TGI (M14 melanoma): 21.4 µM | TGI (HCT-116 colon): 41.1 µM | TGI (MOLT-4 leukemia): 28.3 µM | TGI (IGROV1 ovarian): > 78.8 µM | TGI (SW-620 colon): > 100 µM | TGI (SR leukemia): 40.1 µM | TGI (A498 renal): 55.7 µM

O=C1C(Cl)N(c2ccc(Cl)cc2)C1c1c[nH]c2ccccc12 (centres undefined)
TGI (HT29 colon): 37.5 µM | TGI (M14 melanoma): 42.3 µM | TGI (HCT-116 colon): 28.2 µM | TGI (MOLT-4 leukemia): 70 µM | TGI (IGROV1 ovarian): 62.6 µM | TGI (COLO 205 colon): 47.8 µM | TGI (SW-620 colon): 68.8 µM | TGI (SR leukemia): 39.4 µM

CN=c1nc2sc3c(c2c(NC(=S)NC)s1)CCCC3
TGI (HT29 colon): > 100 µM | TGI (BT-549 breast): > 100 µM | TGI (HCT-116 colon): > 100 µM | TGI (MOLT-4 leukemia): > 100 µM | TGI (IGROV1 ovarian): > 100 µM | TGI (COLO 205 colon): > 100 µM | TGI (SW-620 colon): > 100 µM | TGI (SR leukemia): > 100 µM | TGI (A498 renal): > 100 µM

O=C(O)c1ccc(Nc2c3ccccc3nc3ccccc23)cc1
TGI (HT29 colon): > 100 µM | TGI (HCT-116 colon): > 100 µM | TGI (MOLT-4 leukemia): > 83.9 µM | TGI (IGROV1 ovarian): > 100 µM | TGI (COLO 205 colon): > 100 µM | TGI (SW-620 colon): > 100 µM | TGI (A498 renal): > 100 µM

O=c1cc(N2CCOCC2)[nH]c(=O)n1-c1ccc(F)cc1
TGI (HT29 colon): > 100 µM | TGI (BT-549 breast): > 100 µM | TGI (M14 melanoma): > 100 µM | TGI (HCT-116 colon): > 100 µM | TGI (MOLT-4 leukemia): > 100 µM | TGI (IGROV1 ovarian): > 100 µM | TGI (COLO 205 colon): > 100 µM | TGI (SW-620 colon): > 100 µM | TGI (A498 renal): > 100 µM

COc1cc(C(=O)n2c3ccc(Br)cc3c3nc4ccccc4nc32)cc(OC)c1OC
TGI (HT29 colon): > 100 µM | TGI (BT-549 breast): > 100 µM | TGI (M14 melanoma): > 100 µM | TGI (HCT-116 colon): > 100 µM | TGI (MOLT-4 leukemia): > 100 µM | TGI (IGROV1 ovarian): > 100 µM | TGI (COLO 205 colon): > 100 µM | TGI (SW-620 colon): > 100 µM | TGI (SR leukemia): > 100 µM

CC(=O)O[C@H]1C[C@H]2[C@@H](OC(C)=O)/C=C3\C[C@](C)(C(=O)[C@H](O)C(=C1C)C2(C)C)[C@@H](O)C[C@@H]3OC(=O)[C@H](O)[C@H](c1ccccc1)N(C)C
TGI (BT-549 breast): > 100 µM | TGI (M14 melanoma): > 100 µM | TGI (HCT-116 colon): > 100 µM | TGI (MOLT-4 leukemia): > 100 µM | TGI (IGROV1 ovarian): > 100 µM | TGI (COLO 205 colon): > 100 µM | TGI (SW-620 colon): > 100 µM | TGI (SR leukemia): > 100 µM | TGI (A498 renal): > 100 µM

CCOc1cc2c(OCc3ccccc3)cc3c4cc(OC)c(OC)cc4c[n+](C)c3c2cc1OC
TGI (HT29 colon): 11.1 µM | TGI (BT-549 breast): 4.72 µM | TGI (M14 melanoma): 9.73 µM | TGI (MOLT-4 leukemia): > 20.3 µM | TGI (COLO 205 colon): 0.481 µM | TGI (A498 renal): > 76.3 µM

C1C2CC3CC1CC(Nc1nc(NC45CC6CC(CC(C6)C4)C5)nc(NC45CC6CC(CC(C6)C4)C5)n1)(C2)C3
TGI (HT29 colon): > 100 µM | TGI (BT-549 breast): > 100 µM | TGI (M14 melanoma): > 100 µM | TGI (HCT-116 colon): > 100 µM | TGI (MOLT-4 leukemia): > 100 µM | TGI (COLO 205 colon): > 94.9 µM | TGI (SW-620 colon): > 100 µM | TGI (SR leukemia): > 100 µM | TGI (A498 renal): > 100 µM
